How the values were obtained:
[1] = test system: A427; test: Proliferation of tumor cell lines (Bracht et al.); format: cell-based; settings: Homo sapiens, A-427, read-out: IC50 (μM) Mean, inhibition of cell proliferation
[2] = test system: RT-4; test: Proliferation of tumor cell lines (Bracht et al.); format: cell-based; settings: Homo sapiens, read-out: IC50 (μM) Mean, inhibition of cell proliferation

IC50 [1]: 3.74 µM
IC50 [2]: > 20 µM
SMILES: O=c1ccc(=O)c2c1c1c(=O)c3ccccc3c1n2Cc1ccccc1 [Compound 6c, 5-Benzyl 5,6,9,10-tetrahydroindeno[1,2-b]indole-6,9,10-trione]
